System: RFX1 gene expression in human glioma U251 cells
Assay: RFX1 gene re-expression by 5-azacytidine and trichostatin A treatment, RT-PCR
Format: cell-based
Conditions: single inhibitor, compared with the control, 5-azacytidine 500 nM for 3 days, trichostatin A 500 ng/ml for 24 hours
Protocol: Total RNAs derived from human glioma tissues (GB4, GB13, GB16, and GB17) and human glioma cell lines were extracted with Trizol (manufactured by GIBCO), and total RNAs of normal tissues were purchased from Clontech. cDNAs were synthesized from 10 μg of each of total RNAs using the reverse transcriptase XL (AMV) (manufactured by Takara Shuzo Co., Ltd.) in a final volume of 10 μl. PCR was performed in the system in a total volume of 25 μl, using 1 μl cDNA template and Takara Taq™ (manufactured by Takara Shuzo Co., Ltd.). […]
The resulting PCR products were electrophoresed on 2% agarose gel and analyzed by ethidium bromide staining.
Human glioma cell lines were plated at a low density, incubated for 24 hours, and then 5-azacytidine (methyltransferase inhibitor) (manufactured by Sigma Chemical Co.) was added at a final concentration of 500 nM. […] PCR was then performed and changes in gene expression were analyzed using each agent.
To investigate the relationship between reduction or loss of expression of the RFX1 and BGT-1 genes in glioma and DNA methylation or histone deacetylation, change in expression of each gene was analyzed using the RT-PCR method, either after treatment of human glioma cell lines with the methyltransferase inhibitor 5-azacytidine and the histone deacetylase inhibitor trichostatin A singly or after treatment of cells with both inhibitors.

SMILES | change in expression of the RFX1 gene (RT-PCR)
Nc1ncn([C@@H]2O[C@H](CO)[C@@H](O)[C@H]2O)c(=O)n1 [5-azacytidine] | enhancement of expression
CC(/C=C/C(=O)NO)=C\[C@@H](C)C(=O)c1ccc(N(C)C)cc1 [trichostatin A] | enhancement of expression

From patent US20060105330A1, “Diagnostics and remedies for malignant brain tumor” (Institute of gene and brain science, priority 2002, published 2006)
